B1: E. coli SspA, wild type (natural protein, UniProt P0ACA3 1-212, looked up)
chain: MAVAANKRSVMTLFSGPTDIYSHQVRIVLAEKGVSFEIEHVEKDNPPQDLIDLNPNQSVPTLVDRELTLWESRIIMEYLDERFPHPPLMPVYPVARGESRLYMHRIEKDWYTLMNTIINGSASEADAARKQLREELLAIAPVFGQKPYFLSDEFSLVDCYLAPLLWRLPQLGIEFSGPGAKELKGYMTRVFERDSFLASLTEAEREMRLGRS
notes: also called wild-type SspA; E. coli SspA homodimer

Tests used:
E. coli SspA homodimer = E. coli SspA homodimer (Escherichia coli, UniProt P0ACA3); type: binding
SEC = target: the molecule itself; assay: SEC

| Molecule | DRaCALA (E. coli SspA homodimer) | stoichiometry N (SEC) |
| --- | --- | --- |
| Nc1nc2c(ncn2[C@@H]2O[C@H](COP(=O)(O)OP(=O)(O)O)[C@@H](OP(=O)(O)OP(=O)(O)O)[C@H]2O)c(=O)[nH]1 [ppGpp] | only very weak binding requiring ppGpp concentrations in the high micromolar range |  |
| B1 |  | 2 |

From PMC5630020 (Genes & Development, 2017)
